# What was measured:
# Assay type in all cases: in vivo
# [1] = test system: male C57/BL6 mice; assay: Paw placement test after photothrombotic stroke in the mouse
# [2] = test system: male Sprague Dawley rats; assay: Infarct size after photothrombotic stroke in the rat; details: 5 mg/kg i.p., FIG. 1B
# Method: Experimental stroke. The animals were anesthetized by isoflurane (approximately 2% in 02 under spontaneous ventilation) and placed into stereotaxic frame. Temperature was monitored during surgery using a rectal temperature probe and animals were kept at 37.0-37.5±0.2° C. by means of a heating pad with feedback control. A sagittal skin incision was made and subcutaneous connective tissue was removed and the skull was dried. Thereafter, the photosensitizer dye Rose Bengal (0.5 mL at 10 mg/mL) was infused in the tail vein. […] The functional deficit was assessed 2 h after the onset of the stroke using the limb placement test and only the animals having a score 0, for both fore- and hindlimb contralateral to the brain damaged hemisphere were used for the study. […]
# (§1) Infarct measurements. […] Twelve slices 1 mm apart, were scanned, and the non-lesioned area of the infarcted hemisphere and the non-lesioned contralateral hemisphere were outlined and measured using the ImageJ software (National Institute of Health, USA). Infarct volume (mm^3) was determined by subtracting the area of the non-lesioned ipsilateral hemisphere from that of the intact contralateral hemisphere, and calculated by volumetric integration for each animal.
# [3] = test system: male C57/BL6 mice; assay: Infarct size after photothrombotic stroke in the mouse; details: 5 mg/kg i.p. for 5 days, FIG. 2B
# Method: Tissue collection. The animals were deeply anesthetized (isoflurane) and perfusion-fixed with 4% paraformaldehyde (PFA) solution. Brains were collected and immersed in 4% PFA solution for 4 h, then transferred into a 25% sucrose phosphate buffer solution (0.1 M NaH2PO4, 0.1 M Na2HPO4) and stored at 4° C. Brains were then cut in 30 μm slices using a microtome and one slice was kept each 1 mm for infarct size measurement. The others were kept for immunohistochemistry and immunofluorescence. All the slices were stored in anti-freeze solution (30% ethylene glycol, 30% glycerol, 0.01 M NaH2PO4, 0.03 M Na2HPO4) at −20° C.
# Immunohistochemistry. Free-floating brain slices were rinsed three times in PBS (phosphate buffer saline) and quenched in 3% H2O2 and 10% MetOH for 15 minutes. […]
# as §1, with “animal. […]” for “animal.”
# The animals were perfused and immunostained as in Example 1, and the infarct size was assessed as in Example 1.
# [4] = test system: male C57/BL6 mice; assay: Paw placement test after photothrombotic stroke in the mouse; details: mouse; five days treatment initiated 10 days after stroke; FIG. 2C
# Method: Animals. All experiments were carried out with the approval of the Malmo-Lund animal review board and according to the ARRIVE guidelines. The experiments were carried out on male C57/BL6 mice (8 weeks of age, Charles River Scanbur A/S Karlslunde, Denmark). Studies were subjected to randomization and carried out in a blinded fashion to the investigators who performed the surgeries and behavioral assessment.
# Materials were as in Example 1 and the administration of the drug was made as in Example 1. Also the positive allosteric modulator (PAM) for the mGlur5 receptor was SIN006 (N-Cyclobutyl-6-[2-(3-fluorophenyl)ethynyl]-3-pyridinecarboxamide hydrochloride; VU0360172).
# Induction of stroke in the mouse. Mice were subjected to unilateral photothrombotic (PT) cortical infarct in the left sensori-motor cortex. During surgery, the body temperature of the animals was kept at 37° C. using a self-regulating heating pad. Animals were anesthetized using 1.5-2.5% isoflurane (Sigma) in 100% 02. The skin above the skull was incised; a fiber optic bundle with a 2.5 mm aperture diameter was connected to a cold light source (CL 1500 ECO, Zeiss, Germany) and adjusted to the stereotaxic coordinates of the sensori-motor cortex, 0.5 mm anterior to bregma and 1.5 mm lateral to midline. One intraperitoneal (i.p.) injection of 0.25 ml Rose Bengal (10 mg/ml in 0.9% saline; Sigma-Aldrich, Germany) was given 5 min before the light was turned on for 20 minutes. Care was taken not to exceed 38° C. at the skull surface, underneath the fiber optic bundle. Post surgery, animals were allowed to awake from anesthesia while on a heating pad and returned to the cages with free access to food pellets and water.
# Enriched housing. It is well known that housing of rodents in an enriched environment stimulates the various sensori-motor systems of the brain enhancing recovery after experimental stroke. Enriched housing was accomplished by the following procedure. After selective sorting at day 2 after stroke, mice were randomly distributed into standard (STD, 17 cm×16 cm×34.5 cm) or enriched cages (EE, 30 cm×27 cm×43 cm). Multilevel-enriched cages were equipped with various colored objects such as plastic tunnels, small houses, slides and rodent running wheels; the disposition of the objects was changed every second day. Mice were housed in either standard (2 animals/cage) or enriched cages (6-8 animals/cage) for 12 days. Animals in standard cages were handled similarly except for the housing condition.
# Paw placement test. The mouse was held along its rostro-caudal extension on the edge of a bench and both the unilateral front and hind paws were gently pushed along it. The placement of each paw was recorded when the mouse was moved towards the edge. Sensori-motor dysfunction was assessed by using a score of 1, 0.5, and 0: (1)—the paw is immediately placed on the table surface; (0.5)—the limb is extended, but with some movements and attempts to place the paw on the surface of the table; (0)—the paw is totally immobilized, hanging down, with no movement. In order to obtain groups with a similar functional deficit prior to treatment of the animals with drugs or vehicle, selective sorting was performed on day 2 after experimental stroke, a time point of recovery when the infarct development had subsided.
# Administration of the compounds. The compounds were administrated orally (p.o.) by catheters placed in the stomach. The amount of solutions were 0.2 ml/rat and 0.1 ml/mice.
# Induction of stroke was as made as in Example 1 for rats and as in Example 2 in mice. Assessment of neurological function was performed as in Example 1 for rats and as in Example 2 for mice. The animals were perfused and immunostained as in Example 1, and the infarct size was assessed as in Example 1.
compound,measurement,setting,value
"Cc1nc(C#Cc2cccnc2)cs1 [SIN007, 3-[(2methyl-1,3-thiazol-4-yl)ethynyl]pyridine]",recovery of function,"[1]; 1 mg/kg i.p. daily for 3 days, standard housing, FIG. 2F",moderately enhances recovery of function
same,"recovery of function, combined with enriched environment","[1]; 1 mg/kg i.p. for 3 days plus housing in enriched environment, FIG. 2F",significantly improves recovery
same,functional recovery (paw placement),"[1]; 5 mg/kg i.p. daily for 5 days starting 2 days after stroke, vs vehicle, p<0.01, FIG. 2A",strong recovery enhancing effect
same,paw placement score after 5 days of treatment,"[1]; SIN007 5 mg/kg i.p. alone, vs vehicle, FIG. 2D",recovered paw function
same,infarct size compared to vehicle,[2],no difference in infarct size
same,infarct size,[2]; animals of FIG. 1A,19.5±4.6 mm^3
same,infarct size,[3],8.9±0.9 mm^3
same,mean infarct size compared to vehicle,[3],the mean infarct size was the same in the two groups
same,"recovery of function, delayed treatment",[4],the recovery of function is the same as when treatment is initiated at 2 days after stroke

# From patent US11033545B2, “Negative allosteric modulators of MGLUR5 for use in the treatment of mature brain damages” (Sinntaxis AB, priority 2016, dated 2021)
